Marks after values point to notes of the source that are not given here.
Legend:
11β-HSD1 [1] = target: T1, 11β-HSD1 (Homo sapiens, UniProt P28845); assay: Human keratinocytes assay: 11β-HSD1 activity (cortisone to cortisol); assay type: cell-based; details: 48 h
Protocol: Cell Culture: Primary human skin keratinocytes obtained from CelINTec advanced Cell Systems were maintained in CnT-PR medium at 37° C. in a humidified 5% CO2-air atmosphere. Cells were subcultured before reaching confluence.
Assessment of 11β-HSD1 activity: Human primary keratinocytes were pre-cultured in complete culture media (CnT-PR, CelINTec) to 90% of confluence. Subsequently cells were washed twice with PBS-buffer to remove remaining corticosteroids and media were exchanged to custom made hydrocortisone-free media.
Calculation: % remaining 11β-HSD1 activity=(cortisol-level with inhibitor/cortisol-level without inhibitor)*100%

[2] = Solubility in cosmetic oils from saturated mixtures (UPLC); assay type: physicochemical; details: 7 days at room temperature (22° C.); for Solubility in cosmetic oils: Cetiol B: Cetiol B (dibutyl adipate); for Solubility in cosmetic oils: DUB DIS: DUB DIS (diisopropyl sebacate); for Solubility in cosmetic oils: Finsolv EB: Finsolv EB (ethylhexyl benzoate)
Protocol: H2O+0.02% TFA (A phase) and MeCN+0.02% TFA (B phase) were used as eluents, with a flow of 0.5 mL/min.
The solubility of selected compounds was tested in the cosmetic oils Cetiol B (INCI name: dibutyl adipate from BASF Personal Care), DUB DIS (INCI name: diisopropyl sebacate from Stearinerie Dubois) and Finsolv EB ((INCI name: ethylhexyl benzoate from Innospec Performance Chemicals).
Samples of about 1 mg of the compounds to be tested were exactly weighted and dissolved in 90% MeCN(aq) to provide 0.1% (1000 ppm) w/v stock solutions. Aliquots of the stock solutions were diluted with 90% MeCN(aq) to provide 10, 100 and 250 ppm diluted solutions, which were tested by UPLC.
For each compound to be tested about 20 mg material were weighted in three microcentrifuge tubes and to each tube about 150 mg of one cosmetic oil were added, as reported in Table 5 below.
After mixing on a Vortex mixer for 5 min, the respective samples were mixed on a waving platform shaker (20 cycles/min) for 7 days at room temperature (22° C.). After that time, the tubes were centrifuged for 5 min at 12000 rpm, 10 μL samples of the supernatant were diluted to 1.00 mL with MeOH, 100 μL of these solutions were diluted to 1.00 mL with 90% MeCN(aq) and subsequently analyzed by UPLC. The compound concentration in each solution was calculated using the respective calibration curve. From the compound concentration in the diluted solutions the concentrations of the respective parent mixtures was calculated accordingly.

11β-HSD1 [3] = target: T1, 11β-HSD1; assay: 11β-HSD1 enzyme activity assay in cell lysates of transfected HEK-293 cells (HHH7 clone); assay type: biochemical; design: expressed in transfected cells; host or cells: HEK-293 (HHH7 clone), used as cell lysate; details: 200 nM cortisone, 450 μM NADPH, 10 min
Protocol: Stably transfected human embryonic kidney (HEK-293) cells expressing 11β-HSD1 and hexose-6-phosphate dehydrogenase (the so called HHH7 clone) were cultivated for 48 h in Dulbecco's modified Eagle medium (DMEM) containing 4.5 g/L glucose, 10% fetal bovine serum, 100 U/mL penicillin, 0.1 mg/mL streptomycin, 1×MEM nonessential amino acids, and 10 mM HEPES buffer, pH 7.4. The cells were then washed with phosphate-buffered saline, and centrifuged for 4 min at 150×g. After removal of the supernatants, cell pellets were snap frozen on dry ice and stored at −80° C. until further use.
Cell lysates were incubated for 10 min at 37° C. in TS2 buffer (100 mM NaCl, 1 mM EGTA, 1 mM EDTA, 1 mM MgCl2, 250 mM sucrose, 20 mM Tris-HCl, pH 7.4) in a final volume of 22.2 μL containing either solvent (0.1% DMSO) or the inhibitor at the respective concentration as indicated in Table 4 (see below).
The steroids were separated by TLC, using methanol-chloroform (1:9) as solvent, followed by scintillation counting and calculation of substrate concentration. Data were collected from four independent measurements (standard deviation<10%).

[4] = tested on: Human skin from abdominal plastic surgery; assay: Ex vivo: total dermal collagen after cortisone and cortisone/inhibitor treatment; assay type: cell-based; details: day 6; for Dermal collagen: untreated set to 100%
Protocol: Human skin from abdominal plastic surgery was used. The skin samples were cut in pieces of ˜8×3 mm (ø×thickness) and cultured up to day 6 in an air-liquid interface in a perforated ring of stainless steel in contact with a culture medium (modified Williams' E medium), while renewing the culture medium on day 3. Six skin specimens were used for each test sample. Each test sample (4 μl) was applied topically on top of each piece after cleaning of the surface with a cotton pad, which was subsequently covered with a 6 ø mm delivery membrane, this procedure was repeated daily. After 6 days skin sections were stained with Picrosirius Red histochemical staining, that dyes collagen fibers in purple-red. The papillary dermis was selected for the analysis. The different colors of the pictures were separated by using a deconvolution matrix. After deconvolution only pink-reddish images are used. Within these images the evaluation of dermal collagen was performed by estimating both color intensity and distribution with IMAGE J (NIH) analysis software. Two slides of each skin sample were processed by image acquisition and related analysis (i.e. 12 images for each treatment).

[5] = tested on: Human skin from abdominal plastic surgery; assay: Ex vivo: total dermal collagen III after UV-irradiation; assay type: cell-based; details: for Increase versus UV treatment (#2): day 6; for Dermal collagen III: daily UV 6 J/cm^2, day 6, non UV treated set to 100%
Protocol: Human skin from abdominal plastic surgery classified as “Intermediate” (ITA° angle=42°) was used. The skin samples were cut in pieces of approx. 8×3 mm (0×thickness) and cultured up to day 6 in an air-liquid interface in a perforated ring of stainless steel in contact with a culture medium (modified Williams' E medium, while renewing the culture medium on day 3. Six skin specimens were used for each test sample. Each test sample (4 μl) was topically applied on top of each piece after gentle cleaning of the surface with a cotton pad, which was subsequently covered with a 6 ø mm delivery membrane, this procedure was repeated daily. The samples were irradiated daily with 80% of the Biological effective dose for daylight (i.e. 6 J/cm^2) using an adopted BIO-SUN system (Vilber Lourmat). At day 6 twelve skin sections were immunostained with mouse monoclonal anti-collagen III antibody (Sigma cat #c7805). The papillary dermis was selected for the analysis. The evaluation was performed by estimating both color intensity and distribution with IMAGE J (NIH) analysis software. Two slides of each skin sample have been processed by image acquisition and related analysis (i.e. 12 images for each treatment).

[6] = 10 μM in DMSO, cortisone/inhibitor treatment, topical daily
[7] = 100 μM in DMSO, cortisone/inhibitor treatment, topical daily
[8] = 200 μM in DMSO, cortisone/inhibitor treatment, topical daily

T1 sequence (P28845 whole entry): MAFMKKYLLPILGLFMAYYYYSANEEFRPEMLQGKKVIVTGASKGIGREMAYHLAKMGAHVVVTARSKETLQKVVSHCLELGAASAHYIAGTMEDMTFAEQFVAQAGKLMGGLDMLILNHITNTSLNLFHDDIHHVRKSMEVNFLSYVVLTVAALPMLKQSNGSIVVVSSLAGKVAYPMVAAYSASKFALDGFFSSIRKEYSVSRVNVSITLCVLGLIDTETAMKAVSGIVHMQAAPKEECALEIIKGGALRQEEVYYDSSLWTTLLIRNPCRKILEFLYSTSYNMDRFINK

remaining activity at 0.001 µM (11β-HSD1 [1])	remaining activity at 0.00316 µM (11β-HSD1 [1])	remaining activity at 0.01 µM (11β-HSD1 [1])	remaining activity at 0.03162 µM (11β-HSD1 [1])	remaining activity at 0.1 µM (11β-HSD1 [1])	Solubility in cosmetic oils: Cetiol B [2]	Solubility in cosmetic oils: DUB DIS [2]	Solubility in cosmetic oils: Finsolv EB [2]	SMILES	other results
55%	37%	11%	3%	0%				Cc1ccc(-c2cccc(C(=O)N3CCOC(C)(C)C3)c2)cc1F [III-a, (2,2-dimethylmorpholino) (3′-fluoro-4′-methyl-[1,1′-biphenyl]-3-yl)methanone]	remaining activity at 0.00032 µM (11β-HSD1 [1]): 70%
					3.0%	2.4%	3.4%	CC1CCN(C(=O)c2cccc(-c3cccc(C(N)=O)c3)c2)CC1 [II-k, 3′-(4-methylpiperidine-1-carbonyl)-[1,1′-biphenyl]-3-carboxamide]	
								Cc1ccc(-c2cccc(C(=O)N3CC(C)OC(C)C3)c2)cc1 (centres unmarked) [III-c, (2,6-dimethylmorpholino) (4′-methyl-[1,1′-biphenyl]-3-yl)methanone]	11β-HSD1 Remaining activity [% of control] (11β-HSD1 [3]; inhibitor 100 nM): 60 % of control; 11β-HSD1 Remaining activity [% of control] (11β-HSD1 [3]; inhibitor 1 μM): 3 % of control
74%	45%	22%	8%	2%				Cc1ccc(-c2cccc(C(=O)N3CCCCCC3)c2)cc1F [IV-a, azepan-1-yl(3′-fluoro-4′-methyl-[1,1′-biphenyl]-3-yl)methanone]	Dermal collagen [4, 6]: 96%; Increase versus cortisone (#2) ([4]; 10 μM in DMSO): +25%; Dermal collagen [4, 7]: 97%; Increase versus cortisone (#2) ([4]; 100 μM in DMSO): +26%; Dermal collagen [4, 8]: 86%; Increase versus cortisone (#2) ([4]; 200 μM in DMSO): +12%; Increase versus UV treatment (#2) ([5]; 10 μM in DMSO): +13%; Dermal collagen III ([5]; 10 μM in DMSO): 90%; Increase versus UV treatment (#2) ([5]; 100 μM in DMSO): +21%; Dermal collagen III ([5]; 100 μM in DMSO): 97%
								Cc1ccc(-c2cccc(C(=O)N3CCC(C)CC3)c2)cc1 [II-f, (4′-methyl-[1,1′-biphenyl]-3-yl)(4-methylpiperidin-1-yl)methanone]	11β-HSD1 Remaining activity [% of control] (11β-HSD1 [3]; inhibitor 1 μM): 2 % of control
70%	42%	23%	9%	3%	3.3%	2.6%	4.0%	Cc1ccc(-c2cccc(C(=O)N3CCCCCC3)c2)cc1 [IV-c, azepan-1-yl(4′-methyl-[1,1′-biphenyl]-3-yl)methanone]	
10%								Cc1ccc(-c2cccc(C(=O)N3CCCC(C)(C)C3)c2)cc1F [II-h, (3,3-dimethylpiperidin-1-yl)(3′-fluoro-4′-methyl-[1,1′-biphenyl]-3-yl)methanone]	remaining activity at 40 pM (11β-HSD1 [1]): 74%; remaining activity at 0.0001 µM (11β-HSD1 [1]): 45%; remaining activity at 0.00032 µM (11β-HSD1 [1]): 24%
								C[C@]12CCC(=O)C=C1CC[C@@H]1[C@@H]2C(=O)C[C@@]2(C)[C@H]1CC[C@]2(O)C(=O)CO [cortisone, reference compound]	Dermal collagen ([4]; cortisone alone 0.1 μM in DMSO): 77%
85%	70%	50%	21%	4%				CC1CCN(C(=O)c2cccc(-c3ccccc3Cl)c2)CC1 [II-e, (2′-chloro-[1,1′-biphenyl]-3-yl)(4-methylpiperidin-1-yl)methanone]	
					10.0%	4.3%	2.6%	Cc1ccc(-c2cccc(C(=O)N3CC(C)OC(C)C3)c2)cc1F (centres unmarked) [III-b, (2,6-dimethylmorpholino) (3′-fluoro-4′-methyl-[1,1′-biphenyl]-3-yl)methanone]	
								Cc1ccc(-c2cccc(C(=O)N3CCC(C)CC3)c2)cc1F [II-d, (3′-fluoro-4′-methyl-[1,1′-biphenyl]-3-yl)(4-methylpiperidin-1-yl)methanone]	11β-HSD1 Remaining activity [% of control] (11β-HSD1 [3]; inhibitor 100 nM): 45 % of control
83%	73%	52%	28%	10%	≥ 10.6%^b	≥ 10.2%^b	≥ 10.3%^b	O=C(c1cccc(-c2ccccc2)c1)N1CCCCCC1 [IV-f, [1,1′-biphenyl]-3-yl(azepan-1-yl)methanone]	Dermal collagen [4, 6]: 103%; Increase versus cortisone (#2) ([4]; 10 μM in DMSO): +34%; Dermal collagen [4, 7]: 103%; Increase versus cortisone (#2) ([4]; 100 μM in DMSO): +34%; Dermal collagen [4, 8]: 93%; Increase versus cortisone (#2) ([4]; 200 μM in DMSO): +21%; Increase versus UV treatment (#2) ([5]; 10 μM in DMSO): +6%; Dermal collagen III ([5]; 10 μM in DMSO): 85%; Increase versus UV treatment (#2) ([5]; 100 μM in DMSO): +33%; Dermal collagen III ([5]; 100 μM in DMSO): 106%
					≥ 13.2%^b	≥ 10.6%^b	≥ 10.2%^b	Cc1ccc(-c2cccc(C(=O)N3CCC(C)CC3)c2)cn1 [II-a, (4-methylpiperidin-1-yl)(3-(6-methylpyridin-3-yl)phenyl)methanone]	Dermal collagen [4, 6]: 94%; Increase versus cortisone (#2) ([4]; 10 μM in DMSO): +22%; Dermal collagen [4, 7]: 108%; Increase versus cortisone (#2) ([4]; 100 μM in DMSO): +40%; Dermal collagen [4, 8]: 114%; Increase versus cortisone (#2) ([4]; 200 μM in DMSO): +48%; Increase versus UV treatment (#2) ([5]; 10 μM in DMSO): +5%; Dermal collagen III ([5]; 10 μM in DMSO): 84%; Increase versus UV treatment (#2) ([5]; 100 μM in DMSO): +43%; Dermal collagen III ([5]; 100 μM in DMSO): 114%

Source: patent US10550097B2, “Selective 11-beta-hydroxysteroid dehydrogenase type 1 inhibitors” (DSM IP ASSETS B.V., priority 2015, dated 2020)
